The record followed here is ChEMBL document CHEMBL3638962, “Heteroarylcarboxylic acid ester derivative” (2013).

SMILES strings stand for the structures.

The target of the assay is Enteropeptidase (Homo sapiens, UniProt P98073). Nature of the assay: Inhibition Assay: Inhibition assay using human enteropeptidase.
Enteropeptidase, sequence (P98073 2-784 limits assumed): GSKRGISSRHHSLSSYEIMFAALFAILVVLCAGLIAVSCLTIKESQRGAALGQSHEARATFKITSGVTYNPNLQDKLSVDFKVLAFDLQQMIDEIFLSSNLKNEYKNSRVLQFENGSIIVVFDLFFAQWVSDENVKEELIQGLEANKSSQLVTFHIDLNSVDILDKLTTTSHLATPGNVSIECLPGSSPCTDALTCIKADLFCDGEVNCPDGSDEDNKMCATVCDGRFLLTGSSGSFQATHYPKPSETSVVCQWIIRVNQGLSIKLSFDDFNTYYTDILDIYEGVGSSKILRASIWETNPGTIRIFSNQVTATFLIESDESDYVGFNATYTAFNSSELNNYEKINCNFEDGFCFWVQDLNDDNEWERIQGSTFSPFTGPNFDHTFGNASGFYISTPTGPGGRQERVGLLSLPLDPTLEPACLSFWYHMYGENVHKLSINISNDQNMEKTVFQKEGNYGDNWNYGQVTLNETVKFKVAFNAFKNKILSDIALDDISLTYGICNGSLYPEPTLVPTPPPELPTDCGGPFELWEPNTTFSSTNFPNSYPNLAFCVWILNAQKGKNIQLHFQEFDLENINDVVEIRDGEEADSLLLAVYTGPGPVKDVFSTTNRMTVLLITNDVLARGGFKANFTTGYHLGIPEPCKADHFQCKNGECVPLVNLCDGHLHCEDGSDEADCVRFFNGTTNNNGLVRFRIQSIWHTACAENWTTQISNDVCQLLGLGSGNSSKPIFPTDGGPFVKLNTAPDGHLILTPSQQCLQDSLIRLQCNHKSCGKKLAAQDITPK
Enteropeptidase, sequence (P98073 785-1019 limits assumed): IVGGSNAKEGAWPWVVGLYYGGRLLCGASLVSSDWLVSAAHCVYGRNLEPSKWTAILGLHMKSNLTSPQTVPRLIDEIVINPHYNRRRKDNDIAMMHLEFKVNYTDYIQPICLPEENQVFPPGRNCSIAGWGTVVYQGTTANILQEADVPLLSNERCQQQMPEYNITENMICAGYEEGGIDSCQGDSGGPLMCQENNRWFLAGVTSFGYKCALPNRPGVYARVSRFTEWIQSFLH
In general, Ki refers to a dissociation constant, usually derived from enzyme kinetics or from competition with a known ligand. `N=C(N)c1ccc(OC(=O)c2ccc(CCC(=O)N(CCC(=O)O)CC(=O)O)o2)cc1`: the affinity corresponds to a Ki of 0.6 nM. In the case of `CC(Cc1ccc(C(=O)Oc2ccc(C(=N)N)cc2)o1)C(=O)O[C@H](CC(=O)O)C(=O)O` (stereo partly drawn) it was 0.68 nM. Under `CC(Cc1ncc(C(=O)Oc2ccc(C(=N)N)cc2F)s1)C(=O)N[C@@H](CC(=O)O)C(=O)O` (stereo partly drawn) stands 3.7 nM.
